Read-outs that look alike come from different tables or passages of the source.
Tests used:
[1] = Absorption of febuxostat from various regions of the gastro-intestinal tract in rats; format: in vivo, rat
Text: The pharmacokinetic data obtained in the clinical trial referenced above was subsequently used to develop estimated plasma profiles for various febuxostat formulations, including extended release matrix tablets, two-pulse febuxostat formulations, and three-pulse febuxostat formulations. The estimated extended release formulation data was based on a matrix formulation incorporating one or more polymers, and the estimated two-pulse and three-pulse formulation data was based on a formulation incorporating two or more types of beads with differing release profiles. This information and methodology is discussed in Example 2. Additionally, as part of the development process for an extended release febuxostat formulation, various sites of absorption were investigated to determine the optimal physiologic sites of drug absorption for an extended release febuxostat formulation. In early pre-clinical studies, absorption of febuxostat from various regions of the gastro-intestinal tract was studied in rats. […] To guide development of a dosage form that provided the desired plasma concentration-time profile, a site of absorption study was conducted in humans.

clinical = details: human, plasma, po
xanthine oxidase = xanthine oxidase (Homo sapiens, UniProt P47989)
xanthine oxidase, sequence (P47989 whole entry): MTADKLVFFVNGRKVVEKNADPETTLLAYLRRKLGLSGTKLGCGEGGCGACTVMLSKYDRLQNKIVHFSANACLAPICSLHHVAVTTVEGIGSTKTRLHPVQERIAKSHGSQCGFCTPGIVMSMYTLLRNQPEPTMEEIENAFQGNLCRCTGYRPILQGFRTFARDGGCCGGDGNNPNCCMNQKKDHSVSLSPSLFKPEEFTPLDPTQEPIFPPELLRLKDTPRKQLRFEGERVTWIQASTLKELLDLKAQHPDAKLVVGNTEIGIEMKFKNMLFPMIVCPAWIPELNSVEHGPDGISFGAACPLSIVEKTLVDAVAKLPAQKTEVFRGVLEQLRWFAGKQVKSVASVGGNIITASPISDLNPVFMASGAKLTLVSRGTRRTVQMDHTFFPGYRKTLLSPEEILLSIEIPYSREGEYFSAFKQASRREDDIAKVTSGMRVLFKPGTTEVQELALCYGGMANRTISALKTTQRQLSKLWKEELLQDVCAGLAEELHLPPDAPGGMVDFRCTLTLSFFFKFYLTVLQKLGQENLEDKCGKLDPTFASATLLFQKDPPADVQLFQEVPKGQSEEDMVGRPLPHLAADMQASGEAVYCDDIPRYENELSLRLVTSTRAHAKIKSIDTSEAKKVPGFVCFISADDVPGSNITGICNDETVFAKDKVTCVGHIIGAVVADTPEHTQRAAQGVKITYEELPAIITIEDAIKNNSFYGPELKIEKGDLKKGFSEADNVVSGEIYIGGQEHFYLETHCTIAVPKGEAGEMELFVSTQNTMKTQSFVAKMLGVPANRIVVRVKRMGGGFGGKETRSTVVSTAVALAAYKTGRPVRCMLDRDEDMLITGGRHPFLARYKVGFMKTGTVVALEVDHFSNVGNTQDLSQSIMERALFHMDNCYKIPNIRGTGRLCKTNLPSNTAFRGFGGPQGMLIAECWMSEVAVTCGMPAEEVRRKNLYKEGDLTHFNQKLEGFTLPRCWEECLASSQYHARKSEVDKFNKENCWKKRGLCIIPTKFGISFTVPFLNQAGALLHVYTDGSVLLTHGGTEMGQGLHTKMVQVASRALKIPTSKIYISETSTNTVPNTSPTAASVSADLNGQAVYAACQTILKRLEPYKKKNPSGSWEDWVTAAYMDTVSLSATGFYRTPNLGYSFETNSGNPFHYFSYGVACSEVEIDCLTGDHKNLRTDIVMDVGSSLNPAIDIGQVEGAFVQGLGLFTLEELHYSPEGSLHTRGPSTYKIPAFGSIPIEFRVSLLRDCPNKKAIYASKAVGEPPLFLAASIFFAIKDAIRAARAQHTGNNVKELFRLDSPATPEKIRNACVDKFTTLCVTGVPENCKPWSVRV

albumin = molecular target: T1, albumin (Homo sapiens, UniProt P02768); assay: Binding to albumin in the blood; format: in vitro ADME
T1 construct: from tissue; host or cells: blood / plasma
T1 sequence (P02768 25-609): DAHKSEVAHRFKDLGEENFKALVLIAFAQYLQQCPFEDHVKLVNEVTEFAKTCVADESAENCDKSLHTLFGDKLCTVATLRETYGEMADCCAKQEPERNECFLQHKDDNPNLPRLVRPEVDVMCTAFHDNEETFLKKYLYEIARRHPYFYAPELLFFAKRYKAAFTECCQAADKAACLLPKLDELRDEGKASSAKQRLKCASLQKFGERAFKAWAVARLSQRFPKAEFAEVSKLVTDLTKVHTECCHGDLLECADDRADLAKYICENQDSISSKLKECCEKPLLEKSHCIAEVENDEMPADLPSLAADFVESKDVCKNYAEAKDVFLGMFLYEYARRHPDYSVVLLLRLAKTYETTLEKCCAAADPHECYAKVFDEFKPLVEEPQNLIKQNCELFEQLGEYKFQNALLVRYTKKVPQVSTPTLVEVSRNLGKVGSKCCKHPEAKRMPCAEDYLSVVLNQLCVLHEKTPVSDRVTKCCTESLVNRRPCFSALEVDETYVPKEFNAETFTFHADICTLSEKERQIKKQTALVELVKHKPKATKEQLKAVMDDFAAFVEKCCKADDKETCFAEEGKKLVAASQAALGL

Cc1nc(-c2ccc(OCC(C)C)c(C#N)c2)sc1C(=O)O [Febuxostat, 2-[3-cyano-4-(2-methylpropoxy)phenyl]-4-methylthiazole-5-carboxylic acid]
absorption from the colonic region [1]: very poor | Cmax (clinical; 120 mg): ~3900 ng/mL | Cmax (clinical; 240 mg): 10200 ng/mL | Percentage Inhibition of xanthine oxidase (xanthine oxidase; IR 10 mg QD, 8 hours post dose): 43.6% | Percentage Inhibition of xanthine oxidase (xanthine oxidase; IR 10 mg QD, 12 hours post dose): 27.3% | Percentage Inhibition of xanthine oxidase (xanthine oxidase; IR 10 mg QD, 16 hours post dose): 0% | Percentage Inhibition of xanthine oxidase (xanthine oxidase; IR 10 mg QD, 24 hours post dose): 0% | Percentage Inhibition of xanthine oxidase (xanthine oxidase; IR 20 mg QD, 8 hours post dose): 55.9% | Percentage Inhibition of xanthine oxidase (xanthine oxidase; IR 20 mg QD, 12 hours post dose): 54.0% | Percentage Inhibition of xanthine oxidase (xanthine oxidase; IR 20 mg QD, 16 hours post dose): 42.8% | Percentage Inhibition of xanthine oxidase (xanthine oxidase; IR 20 mg QD, 24 hours post dose): 0% | Percentage Inhibition of xanthine oxidase (xanthine oxidase; IR 30 mg QD, 8 hours post dose): 62.3% | Percentage Inhibition of xanthine oxidase (xanthine oxidase; IR 30 mg QD, 12 hours post dose): 52.5% | Percentage Inhibition of xanthine oxidase (xanthine oxidase; IR 30 mg QD, 16 hours post dose): 37.1% | Percentage Inhibition of xanthine oxidase (xanthine oxidase; IR 30 mg QD, 24 hours post dose): 35.9% | Percentage Inhibition of xanthine oxidase (xanthine oxidase; IR 40 mg QD, 8 hours post dose): 69.8% | Percentage Inhibition of xanthine oxidase (xanthine oxidase; IR 40 mg QD, 12 hours post dose): 55.9% | Percentage Inhibition of xanthine oxidase (xanthine oxidase; IR 40 mg QD, 16 hours post dose): 43.3% | Percentage Inhibition of xanthine oxidase (xanthine oxidase; IR 40 mg QD, 24 hours post dose): 36.2% | Percentage Inhibition of xanthine oxidase (xanthine oxidase; IR 50 mg QD, 8 hours post dose): 77.9% | Percentage Inhibition of xanthine oxidase (xanthine oxidase; IR 50 mg QD, 12 hours post dose): 64.9% | Percentage Inhibition of xanthine oxidase (xanthine oxidase; IR 50 mg QD, 16 hours post dose): 49.1% | Percentage Inhibition of xanthine oxidase (xanthine oxidase; IR 50 mg QD, 24 hours post dose): 38.5% | Percentage Inhibition of xanthine oxidase (xanthine oxidase; IR 70 mg QD, 8 hours post dose): 81.2% | Percentage Inhibition of xanthine oxidase (xanthine oxidase; IR 70 mg QD, 12 hours post dose): 66.3% | Percentage Inhibition of xanthine oxidase (xanthine oxidase; IR 70 mg QD, 16 hours post dose): 56.0% | Percentage Inhibition of xanthine oxidase (xanthine oxidase; IR 70 mg QD, 24 hours post dose): 35.3% | Percentage Inhibition of xanthine oxidase (xanthine oxidase; IR 90 mg QD, 8 hours post dose): 85.6% | Percentage Inhibition of xanthine oxidase (xanthine oxidase; IR 90 mg QD, 12 hours post dose): 77.7% | Percentage Inhibition of xanthine oxidase (xanthine oxidase; IR 90 mg QD, 16 hours post dose): 68.1% | Percentage Inhibition of xanthine oxidase (xanthine oxidase; IR 90 mg QD, 24 hours post dose): 50.3% | Percentage Inhibition of xanthine oxidase (xanthine oxidase; IR 120 mg QD, 8 hours post dose): 89.0% | Percentage Inhibition of xanthine oxidase (xanthine oxidase; IR 120 mg QD, 12 hours post dose): 82.6% | Percentage Inhibition of xanthine oxidase (xanthine oxidase; IR 120 mg QD, 16 hours post dose): 75.8% | Percentage Inhibition of xanthine oxidase (xanthine oxidase; IR 120 mg QD, 24 hours post dose): 60.5% | time for which at least 80% inhibition of xanthine oxidase is provided (xanthine oxidase; IR 120 mg, Table 2): ≤ 16 h | Percentage Inhibition of xanthine oxidase (xanthine oxidase; IR 160 mg QD, 8 hours post dose): 93.9% | Percentage Inhibition of xanthine oxidase (xanthine oxidase; IR 160 mg QD, 12 hours post dose): 90.9% | Percentage Inhibition of xanthine oxidase (xanthine oxidase; IR 160 mg QD, 16 hours post dose): 81.4% | Percentage Inhibition of xanthine oxidase (xanthine oxidase; IR 160 mg QD, 24 hours post dose): 67.6% | Percentage Inhibition of xanthine oxidase (xanthine oxidase; IR 180 mg QD, 8 hours post dose): 94.7% | Percentage Inhibition of xanthine oxidase (xanthine oxidase; IR 180 mg QD, 12 hours post dose): 91.7% | Percentage Inhibition of xanthine oxidase (xanthine oxidase; IR 180 mg QD, 16 hours post dose): 81.5% | Percentage Inhibition of xanthine oxidase (xanthine oxidase; IR 180 mg QD, 24 hours post dose): 68.4% | Percentage Inhibition of xanthine oxidase (xanthine oxidase; IR 240 mg QD, 8 hours post dose): 95.7% | Percentage Inhibition of xanthine oxidase (xanthine oxidase; IR 240 mg QD, 12 hours post dose): 91.4% | Percentage Inhibition of xanthine oxidase (xanthine oxidase; IR 240 mg QD, 16 hours post dose): 86.5% | Percentage Inhibition of xanthine oxidase (xanthine oxidase; IR 240 mg QD, 24 hours post dose): 72.4% | bound to albumin in the blood (albumin): ~99.3%
